According to ChEMBL document CHEMBL6087465, “Design, Synthesis, and Antitumor Activity Evaluation of 2-Phenylthiazole-5-Carboxylic Acid Derivatives Targeting Transactivation Response RNA-Binding Protein 2” (J Med Chem, 2025):
The source made the active and inactive calls.

What was measured:
[1] = test system: SK-HEP1; assay: Antiproliferative activity against human SK-HEP1 cells cultured as 2D cells assessed as inhibition of cell growth at 10 uM incubated for 72 hrs by CCK-8 assay; format: functional, cell-based
[2] = test system: HCCLM3; assay: Antiproliferative activity against human HCCLM3 cells cultured as 2D cells assessed as inhibition of cell growth at 10 uM incubated for 72 hrs by CCK-8 assay; format: functional, cell-based
[3] = test system: SK-HEP1; assay: Antiproliferative activity against human SK-HEP1 cells cultured as 3D cells assessed as inhibition of cell growth at 10 uM incubated for 72 hrs by CellTiter-Lumi assay; format: functional, cell-based
[4] = test system: HCCLM3; assay: Antiproliferative activity against human HCCLM3 cells cultured as 3D cells assessed as inhibition of cell growth at 10 uM incubated for 72 hrs by CellTiter-Lumi assay; format: functional, cell-based
[5] = test system: HCCLM3; assay: Antiproliferative activity against human HCCLM3 cells cultured as 3D cells assessed as inhibition of colony formation at 25 uM incubated for 21 days by 3D soft-agar based microscopic analysis; format: functional, cell-based; conditions: time 21.0 day
[6] = test system: SK-HEP1; assay: Inhibition of cell migration in human SK-HEP1 cells at 10 uM incubated for 24 hrs by wound healing assay; format: functional, cell-based
[7] = test system: HCCLM3; assay: Inhibition of cell migration in human HCCLM3 cells at 10 uM incubated for 24 hrs by wound healing assay; format: functional, cell-based
[8] = test system: SK-HEP1; assay: Inhibition of cell migration in human SK-HEP1 cells at 10 uM incubated for 24 hrs by transwell assay; format: functional, cell-based
[9] = test system: HCCLM3; assay: Inhibition of cell migration in human HCCLM3 cells at 10 uM incubated for 24 hrs by transwell assay; format: functional, cell-based
[10] = species: Homo sapiens; assay: Inhibition of recombinant human TRBP/recombinant human Dicer protein protein interaction at 25 uM by indirect-competition-ELISA
[11] = test system: SK-HEP1; assay: Antiproliferative activity against TARBP2-knockout human SK-HEP1 cells cultured as 3D cells assessed as inhibition of cell growth at 25 uM incubated for 72 hrs by CellTiter-Lumi assay; format: functional, cell-based
[12] = test system: HCCLM3; assay: Antiproliferative activity against TARBP2-knockout human HCCLM3 cells cultured as 3D cells assessed as inhibition of cell growth at 25 uM incubated for 72 hrs by CellTiter-Lumi assay; format: functional, cell-based
[13] = test system: SK-HEP1; assay: Antiproliferative activity against human SK-HEP1 cells cultured as 3D cells assessed as inhibition of cell growth at 25 uM incubated for 72 hrs by CellTiter-Lumi assay; format: functional, cell-based
[14] = test system: HCCLM3; assay: Antiproliferative activity against human HCCLM3 cells cultured as 3D cells assessed as inhibition of cell growth at 25 uM incubated for 72 hrs by CellTiter-Lumi assay; format: functional, cell-based
[15] = test system: SK-HEP1; assay: Inhibition of cell migration in human SK-HEP1 cells incubated for 24 hrs by transwell assay; format: functional, cell-based
[16] = test system: HCCLM3; assay: Inhibition of cell migration in human HCCLM3 cells incubated for 24 hrs by transwell assay; format: functional, cell-based
[17] = test system: SK-HEP1; assay: Inhibition of cell migration in TARBP2-knockout human SK-HEP1 cells at 1 to 25 uM incubated for 24 hrs by transwell assay; format: functional, cell-based; conditions: dose 1-25 µM
[18] = test system: HCCLM3; assay: Inhibition of cell migration in TARBP2-knockout human HCCLM3 cells at 1 to 25 uM incubated for 24 hrs by transwell assay; format: functional, cell-based; conditions: dose 1-25 µM
[19] = Inhibition of PI3K/AKT/mTOR signaling pathway in human HCCLM3 cells assessed as downregulation of AKT phosphorylation incubated for 24 hrs by Western blotting analysis; format: cell-based
[20] = Inhibition of PI3K/AKT/mTOR signaling pathway in human HCCLM3 cells assessed as downregulation of mTOR phosphorylation incubated for 24 hrs by Western blotting analysis; format: cell-based
[21] = test system: HCCLM3; assay: Antiproliferative activity against human HCCLM3 cells assessed as upregulation of SMAD7 expression at 10 uM by Western blotting analysis; format: functional, cell-based
[22] = test system: HCCLM3; assay: Antiproliferative activity against human HCCLM3 cells assessed as downregulation of SMAD2 phosphorylation at 10 uM by Western blotting analysis; format: functional, cell-based
[23] = test system: HCCLM3; assay: Antiproliferative activity against human HCCLM3 cells assessed as downregulation of SMAD3 phosphorylation at 10 uM by Western blotting analysis; format: functional, cell-based
[24] = test system: HCCLM3; assay: Antiproliferative activity against human HCCLM3 cells assessed as upregulation of SMAD7 expression incubated for 24 hrs by Western blotting analysis; format: functional, cell-based
[25] = test system: HCCLM3; assay: Antiproliferative activity against human HCCLM3 cells assessed as downregulation of SMAD2 phosphorylation incubated for 24 hrs by Western blotting analysis; format: functional, cell-based
[26] = test system: HCCLM3; assay: Antiproliferative activity against human HCCLM3 cells assessed as downregulation of SMAD3 phosphorylation incubated for 24 hrs by Western blotting analysis; format: functional, cell-based
[27] = Acute toxicity in Kunming mouse assessed as animal death at 100 mg/kg,ip administration measured after 14 days; format: organism-based; conditions: in vivo, 336 h, time 14 day
[28] = Acute toxicity in Kunming mouse assessed as body weight loss at 100 mg/kg,ip administration measured after 14 days; format: organism-based; conditions: in vivo, 336 h, time 14 day
[29] = Acute toxicity in Kunming mouse assessed as effect on AST level in liver at 100 mg/kg,ip administration measured after 14 days; format: organism-based; conditions: in vivo, 336 h, time 14 day
[30] = Acute toxicity in Kunming mouse assessed as effect on ALT level in liver at 100 mg/kg,ip administration measured after 14 days; format: organism-based; conditions: in vivo, 336 h, time 14 day
[31] = Acute toxicity in Kunming mouse assessed as effect on ALB level in liver at 100 mg/kg,ip administration measured after 14 days; format: organism-based; conditions: in vivo, 336 h, time 14 day
[32] = Acute toxicity in Kunming mouse assessed as effect on total bilirubin level in liver at 100 mg/kg,ip administration measured after 14 days; format: organism-based; conditions: in vivo, 336 h, time 14 day
[33] = Acute toxicity in Kunming mouse assessed as effect on direct bilirubin level in liver at 100 mg/kg,ip administration measured after 14 days; format: organism-based; conditions: in vivo, 336 h, time 14 day
[34] = Acute toxicity in Kunming mouse assessed as effect on urea level in kidney at 100 mg/kg,ip administration measured after 14 days; format: organism-based; conditions: in vivo, 336 h, time 14 day
[35] = Acute toxicity in Kunming mouse assessed as effect on creatinine level in kidney at 100 mg/kg,ip administration measured after 14 days; format: organism-based; conditions: in vivo, 336 h, time 14 day
[36] = Acute toxicity in Kunming mouse assessed as effect on uric acid level in kidney at 100 mg/kg,ip administration measured after 14 days; format: organism-based; conditions: in vivo, 336 h, time 14 day
[37] = Acute toxicity in Kunming mouse assessed as effect on creatine kinase level in heart at 100 mg/kg,ip administration measured after 14 days; format: organism-based; conditions: in vivo, 336 h, time 14 day
[38] = Acute toxicity in Kunming mouse assessed as effect on lactate dehydrogenase level in heart at 100 mg/kg,ip administration measured after 14 days; format: organism-based; conditions: in vivo, 336 h, time 14 day
[39] = Acute toxicity in Kunming mouse assessed as pathological change in heart at 100 mg/kg,ip administration measured after 14 days by hematoxylin and eosin staining based microscopic analysis; format: organism-based; conditions: in vivo, 336 h, time 14 day
[40] = Acute toxicity in Kunming mouse assessed as pathological change in spleen at 100 mg/kg,ip administration measured after 14 days by hematoxylin and eosin staining based microscopic analysis; format: organism-based; conditions: in vivo, 336 h, time 14 day
[41] = Acute toxicity in Kunming mouse assessed as pathological change in lung at 100 mg/kg,ip administration measured after 14 days by hematoxylin and eosin staining based microscopic analysis; format: organism-based; conditions: in vivo, 336 h, time 14 day
[42] = Acute toxicity in Kunming mouse assessed as pathological change in kidney at 100 mg/kg,ip administration measured after 14 days by hematoxylin and eosin staining based microscopic analysis; format: organism-based; conditions: in vivo, 336 h, time 14 day
[43] = test system: HCCLM3; assay: Antiproliferative activity against human HCCLM3 cells cultured as 2D cells assessed as inhibition of cell growth at 10 to 50 uM incubated for 72 hrs by CCK-8 assay; format: functional, cell-based; conditions: dose 10-50 µM
[44] = test system: SK-HEP1; assay: Antiproliferative activity against human SK-HEP1 cells cultured as 2D cells assessed as inhibition of cell growth at 10 to 50 uM incubated for 72 hrs by CCK-8 assay; format: functional, cell-based; conditions: dose 10-50 µM
[45] = test system: SK-HEP1; assay: Inhibition of cell migration in human SK-HEP1 cells at 10 to 50 uM incubated for 24 hrs by transwell assay; format: functional, cell-based; conditions: dose 10-50 µM
[46] = test system: HCCLM3; assay: Inhibition of cell migration in human HCCLM3 cells at 10 to 50 uM incubated for 24 hrs by transwell assay; format: functional, cell-based; conditions: dose 10-50 µM
[47] = test system: HCCLM3; assay: Antitumor activity against human HCCLM3 cells xenografted in BALB/c mouse assessed as inhibition of tumor growth at 50 mg/kg,ip administration measured after 22 days; format: functional, organism-based; conditions: time 22.0 day
[48] = Toxicity in BALB/c mouse xenografted with human HCCLM3 cells assessed as body weight loss at 50 mg/kg,ip administration measured after 22 days; format: organism-based; conditions: in vivo, 528 h, time 22 day
[49] = Toxicity in BALB/c mouse xenografted with human HCCLM3 cells assessed as change in mental state at 50 mg/kg,ip administration measured after 22 days; format: organism-based; conditions: in vivo, 528 h, time 22 day
[50] = Toxicity in BALB/c mouse xenografted with human HCCLM3 cells assessed as pathological change in heart at 50 mg/kg,ip administration measured after 22 days by hematoxylin and eosin staining based microscopic analysis; format: organism-based; conditions: in vivo, 528 h, time 22 day
[51] = Toxicity in BALB/c mouse xenografted with human HCCLM3 cells assessed as pathological change in liver at 50 mg/kg,ip administration measured after 22 days by hematoxylin and eosin staining based microscopic analysis; format: organism-based; conditions: in vivo, 528 h, time 22 day
[52] = Toxicity in BALB/c mouse xenografted with human HCCLM3 cells assessed as pathological change in spleen at 50 mg/kg,ip administration measured after 22 days by hematoxylin and eosin staining based microscopic analysis; format: organism-based; conditions: in vivo, 528 h, time 22 day
[53] = Toxicity in BALB/c mouse xenografted with human HCCLM3 cells assessed as pathological change in lung at 50 mg/kg,ip administration measured after 22 days by hematoxylin and eosin staining based microscopic analysis; format: organism-based; conditions: in vivo, 528 h, time 22 day
[54] = Toxicity in BALB/c mouse xenografted with human HCCLM3 cells assessed as pathological change in kidney at 50 mg/kg,ip administration measured after 22 days by hematoxylin and eosin staining based microscopic analysis; format: organism-based; conditions: in vivo, 528 h, time 22 day
[55] = Half life in Wistar rat at 100 mg/kg,po administration measured upto 96 hrs by HPLC-UV analysis; conditions: in vivo

Cc1nc(-c2ccc(OCC3CC3)c(F)c2)sc1C(=O)O
inactive: Activity [1] | Activity [2]

COCCOc1ccc(-c2nc(C)c(C(=O)O)s2)cc1
active: Activity [3] | Activity [4] | Activity [5] | inhibition [6] | inhibition [7] | inhibition [8] | inhibition [9] | inhibition [10] | Activity [13] | Activity [14] | inhibition [15] Dose-dependent-effect | inhibition [16] Dose-dependent-effect | inhibition [19] Dose-dependent-effect | inhibition [20] Dose-dependent-effect | Activity [21] Time-dependent-effect | Activity [22] Time-dependent-effect | Activity [23] Time-dependent-effect | Activity [24] Dose-dependent-effect | Activity [25] Dose-dependent-effect | Activity [26] Dose-dependent-effect
inactive: Activity [1] | Activity [2] | Activity [11] | Activity [12] | inhibition [17] | inhibition [18]
Non-toxic: Activity [27] | Activity [28] | Activity [29] | Activity [30] | Activity [31] | Activity [32] | Activity [33] | Activity [34] | Activity [35] | Activity [36] | Activity [37] | Activity [38] | Activity [39] | Activity [40] | Activity [41] | Activity [42]

Cc1nc(-c2ccc(OCCCF)cc2)sc1C(=O)O
inactive: Activity [1] | Activity [2]
active: Activity [3] | Activity [4] | Activity [5] | inhibition [6] | inhibition [7] | inhibition [8] | inhibition [9]

Cc1cc(-c2nc(C)c(C(=O)O)s2)ccc1OCC1CC1
inactive: Activity [1] | Activity [2]

Cc1nc(-c2ccc(OCC(C)C)c(C#N)c2)sc1C(=O)O
active: Activity [43] | Activity [44] | inhibition [45] | inhibition [46]

CNC(=O)c1cc(Oc2ccc(NC(=O)Nc3ccc(Cl)c(C(F)(F)F)c3)cc2)ccn1 [SORAFENIB]
21.9 h: half-life at 96 h [55]
Toxic: Activity [48] | Activity [49]
active: Activity [5] | Activity [47]
Non-toxic: Activity [50] | Activity [51] | Activity [52] | Activity [53] | Activity [54]

CCOc1nc(-c2ccc(OCC3CC3)cc2)sc1C(=O)O
inactive: Activity [1] | Activity [2]

Cc1nc(-c2ccc(OCC3CC3)cc2)sc1C(=O)O
inactive: Activity [1] | Activity [2]

Cc1nc(-c2ccc(OCC(C)C)cc2)sc1C(=O)O
inactive: Activity [1] | Activity [2]
